Results taken from patent US20140369934A1, “dsRNA/DNA Hybrid Genome Replication Intermediate Of Metakaryotic Stem Cells” (MASSACHUSETTS INSTITUTE OF TECHNOLOGY, priority 2011, published 2014).

Tested on: dsRNA/DNA-specific antibodies
Experiment: Blocking test of dsRNA/DNA antibody immunofluorescence staining with poly(A)-poly(dT)
Format: binding
Conditions: 10 micrograms/milliliter Poly(A)-Poly(dT) mixed with antibody (1/20 final), incubated 10-15 minutes at room temperature
Method: The specificity of staining by antibodies was checked for by the blocking test with poly(A)-poly(dT), which was performed as follows:
Equal volumes of Poly(A)-Poly(dT) (20 ug/ml) and antibody (1/10) were mixed to give final concentrations of 10 ug/ml A.dT and 1/20 of serum (antibody). For controls, PBS was used in place of Poly(A)-Poly(dT). Samples were incubated for 10-15 minutes at room temperature.
Samples were then tested at final concentrations of 10, 2.0, 0.5 and 0.08 micrograms/ml, in each case incubating equal volumes of polynucleotide and antibody that are twice the final concentration, as above.

**Q.** Poly(A)-Poly(dT) was tested. Which “staining with dsRNA/DNA-specific antibodies after addition of blocker” value did it give?
**A.** Its value is “completely blocked”.
